Experimental findings from patent US9045401B2, “Methods for treating or ameliorating a melanoma and killing melanoma cells” (THE REGENTS OF THE UNIVERSITY OF CALIFORNIA, priority 2007, dated 2015) are described below.

Where two headings read alike, the source gives them in different places.

The term IC50 denotes the concentration that gives 50% inhibition.

In series [1] the test system is A549 cells. In words: confocal microscopy of ceramide and caspase 8. The format is cell-based, human. As for the experimental part:
Confocal microscopy. […] After treatment, the cells were fixed 10 minutes at room temperature with 4% PFA, washed twice with PBS, permeabilized 2 minutes at room temperature with 0.1% triton in PBS and blocked for 30 minutes with sterile 2% BSA in PBS. The staining was performed at room temperature for 2 hours (h), with mouse monoclonal anti-human ceramide (Alexis) and rabbit anti-human caspase 8 (BD Pharmingen) antibodies followed by secondary goat anti-mouse ALEXA FLUOR568™ and goat anti-rabbit ALEXA FLUOR488™ antibodies (Invitrogen). The blue DNA binding dye TOPRO-3™ (Molecular Probes) was added together with the secondary antibodies. The cells were washed three times with PBS between the different incubation steps and the incubation with the secondary fluorescently labeled antibodies was performed in the dark. All antibodies were diluted in PBS. Confocal images were recorded on a Nikon ECLIPSE C1™ confocal microscope.

In series [2] the test system is HUVEC primary endothelial cells. In words: 72 h XTT assay for Huvec cell proliferation. In kind it is cell-based, human. As for the experimental part:
FIG. 2A illustrates a microtiter plate 72 hour (h) XTT assay for Huvec cell proliferation (2500 cells/well seeded), showing serial dilutions of structurally diverse marine natural compounds. […] FIG. 2B graphically illustrates the data for this study.
(§1) Cytotoxicity Assay. Cytotoxicity of ScA was assessed using the XTT cell proliferation assay. Briefly cells were plated on 96 well plates (5,000 per well) and incubated over night at 37° C. to allow for attachment and spreading. After 24 h, ScA was added from a DMSO stock, previously frozen at −80C as added directly from serial dilutions in DMSO at concentrations ranging from 100 uM to 100 fM. After 72 h, XTT (Aldrich Chemicals) was added to a final concentration of 250 ug/well. The plates were then incubated under standard tissue culture conditions until the control wells (DMSO) reached an OD value between 1.0-1.5. as measured at 450 nm using a microtiter plate reader. The cell viability-drug dilution profiles were obtained from sigma plots, and drug concentrations which inhibited growth by 50% were calculated from multiple runs. (IC50)

Series [3] in a line: chemical stability. The format is physicochemical.
The test system of series [4] is Jurkat cells. In words: apoptosis of Jurkat cells by FACS analysis of DNA content. In kind it is cell-based. Particulars: 50 or 300 nM, 6 hours. As for the experimental part:
FIG. 28(B): A549 cells were fixed and costained using antibodies directed against ceramide (red channel) (Bars in A/B=[…]). Arrows indicate regions of “blebbing.” The nuclear compartment was visualized using DAPI to stain DNA (blue channel). The assessments were performed two hours after treatment with 300 nM ScA. FIG. 28(C): Immunoblot analysis of Jurkat cells was performed following treatment with 100 nM ScA. 25 μg of cell lysates was probed for caspases 8, 3 and 9 and for PARP and actin (loading control) as indicated. FIG. 28(D): Caspase 8 deficient (Casp 8), FADD deficient (FADD −) or parental Jurkat cells (Jurkat) were incubated with 50 or 300 nM for 6 hours and analyzed for the presence of apoptotic cells via FACs analysis of DNA content. Results shown are the mean and standard error of triplicate determinations. […] Viability was measured by XTT assay after 72 hours, and normalized to controls not treated with drug. FIG. 28(F): similarly, the viability of neuroblastoma cultures deficient in caspase expression, or reconstituted for caspase 8 expression, was determined as for the A549 cells above. […]
FACS analysis Cell viability was analyzed by flow cytometry following propidium iodide (PI) staining, as described elsewhere (37). […] The extent of apoptosis was determined by plotting PI fluorescence versus the forward scatter parameter, using CELL QUEST™ software.
(In flow cytometry, cells or beads pass a laser one at a time.)

The test system of series [5] is A-549 lung cancer cells. The experiment in a line: XTT cell proliferation / viability assay. In kind it is cell-based, human. Particulars: for IC50: Homo sapiens. As for the experimental part: (§2) Cell lines. Cells and cell lines were maintained in either DMEM or RPMI supplemented with 10% FCS. The caspase-deficient NB7 neuroblastoma cells have been previously described (33). C8-deficient and reconstituted jurkat cells were provided by Dr. Steve Hedrick (UCSD). Silencing of Caspase-8 gene expression in the A549 cells was performed through the use of delivering shRNA in a lentiviral format. Briefly 293 T cells were transfected with caspase-8, (Open Biosystems) or scrambled (Addgene) shRNAs in pLK0.1 lentiviral vector, together with lentiviral packaging plasmids (PMLDL, VSV-G and RSV-REV) using fugene6. The ratio of target ShRNAs and packaging plasmids was ShRNA/PMLDL/VSV-G/RSV-REV, 10/10/6/4 μg. Lentiviral supernatants from 293 T cells were harvested after 48 hours and used to infect A549 cells. Viral constructs were incubated for 24 h with A549 cell lines prior to replacing media with selective media containing puromycin (1 μg/ml). The suppression of caspase-8 was verified by western blot.
as §1

The subject of series [6] is NB7 caspase 8 positive cells. In words: XTT cell proliferation assay. The format is cell-based, human. As to the method: as §2, with “The suppression of caspase-8 was verified by western blot.” left out
Cytotoxicity Assay. Cytotoxicity of ScA was assessed using the XTT cell proliferation assay. […] The plates were then incubated under standard tissue culture conditions until the control wells (DMSO) reached an OD value between 1.0-1.5. as measured at 450 nm using a microtiter plate reader. The cell viability-drug dilution profiles were obtained from sigma plots, and drug concentrations which inhibited growth by 50% were calculated from multiple runs. […]
On the technique in general: Tetrazolium dyes change colour on reduction, which living cells bring about.

Series [7] is described as follows: solubility in aqueous media. The format is physicochemical.

Consider `C=CC/C=C/N(C)C(=O)CCCCCCCC/C=C/[C@H](CSSC[C@@H](/C=C/CCCCCCCCC(=O)N(C)/C=C/CC=C)NC(C)=O)NC(C)=O` [somocystinamide A, Somocystinamide A], for which the “colocalization of ceramide and caspase 8” value in series [1] (0.10 μM, 30 minutes or six hours) was “induced colocalization of ceramide and caspase 8”. Besides, the cell surface ceramide result in series [1] (300 nM, 30 minutes after treatment) is “accumulation, and aggregation, of cell surface ceramide”. The “cytotoxicity, concentration range” value in series [2] (72 h XTT, 2500 cells/well, FIG. 2) is on record as “cytotoxicity in the nanomolar concentration range”. For the same molecule, the IC50 in series [2] (Homo sapiens, HUVEC, anti-proliferative effect, FIG. 6, read-out: IC50) was 0.004 nM; in series [2] (cultured endothelial cells, XTT 72 hours), “picomolar range”; in series [5] (A549, anti-proliferative effect, FIG. 6), 46 nM; in series [5] (A549, percent cell viability, FIG. 16) it was 114 nM; in series [6] (Homo sapiens, anti-proliferative effect, FIG. 6), 12 nM. Further, in series [3] (apart from hydrolytic degradation of the unsaturated amide), the storage stability entry is reported as “otherwise quite stable”. The acid sensitivity result in series [3] (converts to compound 2) was “highly acid-sensitive”. Further, the ScA-mediated killing entry in series [4] (Jurkat cells lacking FADD) was “protected from ScA-mediated killing”. Moreover, the apoptosis entry in series [4] (caspase 8-deficient Jurkat cells compared to wild type) is listed as “dramatically decreased”. Further, the “pro-apoptotic response induced by scA” value in series [5] (lentivirus shRNA silencing of caspase 8 or caspase 3, FIG. 24) was “attenuate the pro-apoptotic response”. The “loss in sensitivity to ScA” value in series [5] (shRNA knockdown of caspase 8, FIG. 28E) is “five-fold”. Further, the “sensitivity of the caspase 8 positive cells to ScA” value in series [6] (relative to NB7 cells) worked out at 100 times. The solubility entry in series [7] is on record as “limited solubility”.
